Assay results as given in patent US20250127166A1, “METHOD FOR PREVENTING INSECT DAMAGE TO PLANTS” (AJINOMOTO CO., INC., priority 2022, published 2025).
Entries after “also recorded” stand apart in the source; their conditions may differ.

How the values were obtained:
[1] = system: AtOPR^3 gene; assay: Pest damage resistance gene expression induction by qPCR; assay type: in vivo, Arabidopsis thaliana; conditions: sixth leaves, 30 minutes after compound treatment of cut first leaf; relative to AtACT8; FIG. 1
Source text: As the pest damage resistance gene, the AtOPR^3 (12-oxophytodienoic acid reductase, involved in the jasmonic acid biosynthesis) gene, which is a typical pest damage resistance gene, was selected. As an internal standard, the AtACT8 gene was selected. The recombinant Arabidopsis thaliana p35S: : GCaMP3 was used as a plant material, and cut was formed on the first leaf of the plant cultivated in the same manner as in Example 1 and treated with a compound. As the compound, Compounds 1 and 34 were used. Sixth leaves at 0 and 30 minutes after the compound treatment were collected and frozen in liquid nitrogen. The total RNA was extracted from the frozen leaf samples (50 to 200 mg) by using RNeasy Plant Mini Kit (Qiagen) according to the protocol thereof. The obtained total RNA was subjected to a residual genomic DNA-removing treatment with RNase free DNase I by using TURBO DNase Kit (Ambion) according to the protocol of the kit. By using this total RNA sample and SuperScriptIII First-Strand Synthesis System for RT-PCR (Invitrogen), single-stranded cDNA was prepared. […] The relative expression amount of the AtOPR^3 gene to that of the internal standard AtACT8 gene was calculated by the AACt method. The test was repeatedly performed 4 or 5 times, and the average of the results was calculated.

[2] = system: glutamate receptor of Arabidopsis thaliana; assay: Real-time imaging assay of Ca2+ signals in recombinant Arabidopsis thaliana p35S::GCaMP3; assay type: in vivo; conditions: 3 μL of 100 mM solution (10 mM for some compounds with low solubility) applied to leaf cut; GCaMP3 fluorescence
Method: In this example, Ca2+signals produced by contact of Compounds 1-58 and 67-75 with the glutamate receptor of Arabidopsis thaliana were analyzed by a real-time imaging assay in which Ca2+is visualized by fluorescence color development. That is, by using a recombinant Arabidopsis thaliana p35S: : GCaMP3, which incorporated the gene encoding the calcium-sensitive fluorescent protein GCaMP3, as a material, changes in intracellular Ca2+ levels caused by treatments with Compounds 1-58 and 67-75 were detected as fluorescence luminance of GCaMP3, and thereby Ca2+signal transduction in plant bodies was analyzed in real time.
The real-time imaging assay of the Ca2+signals was performed as follows.
As the plant material, 2-week old recombinant Arabidopsis thaliana p35S: : GCaMP3 grown on sterile agar medium was used. A small cut of about 1 mm was made at the tip of the first leaf with scissors, and the plant was allowed to stand for 35 minutes. The plant was then placed under the field of view of the fluorescence microscope SMZ25 (Nikon Solutions), and 3 μL of a compound solution was applied to the leaf cut. The generated Ca2+signals were examined in real time with ORCA-Flash4.0 V2 (Hamamatsu Photonics). […] Compounds that produced Ca2+signals in one or more leaves were determined to be compounds that induce Ca2+signals.

[3] = system: Pieris rapae; assay: 4-hour feeding damage test on Arabidopsis thaliana (Example 3); assay type: in vivo; conditions: for pest damage-suppressing activity: Pieris rapae larva, 4-hour feeding damage test
Source text: The recombinant Arabidopsis thaliana […]: : GCaMP3 was used as a plant material, and cut was formed on the first leaf of the plant grown in the same manner as in Example 1 and treated with a compound. Compound 1 was used as the compound. Sorbitol was used as the negative control, and glutamic acid as the positive control. The test was repeatedly conducted 10 times (using independent plants and pests) per plot. One hour after the treatment with the compound, the plant body and 2-week old larva of Pieris rapae were placed in the same container to perform a 4-hour feeding damage test. Weights of the plant body and larva were measured before and after the test to evaluate the weight of the feeding-damaged plant and the weight gain rate of the pest.

[4] = system: Spodoptera litura; assay: Komatsuna leaf disc feeding damage test (Example 5); assay type: in vivo; conditions: one day
Method: Glutamic acid was used as a positive control, and Jasmomate Ekizai (the active substance is prohydrojasmon, a typical injurious hormone-like substance), which is the only resistance inducer for pest damage on the market, was used as a control. The test was conducted for 10 replicates per plot (independent plants and pests).
The plant material was leaf discs collected from komatsuna (Brassica rapa var. perviridis) seedlings grown for 1 month after seeding on culture soil in pots, and the test organism was early second instar larva of Spodoptera litura. Compound 1 was used as a 1 mM solution in Silwet L-77 4,000-fold dilution solution prepared by adding Silwet L-77 to distilled water as a solvent. As a negative control, 100 mM or 1 mM sorbitol was used, and 100 mM or 1 mM glutamic acid was used as a positive control. […] One day after the release, the number of surviving Spodoptera litura larvae in each test container was counted, and a photograph was taken from a height of 5 cm above the container with the lid open so that the entire image could be photographed. Image analysis software (ImageJ) was used to determine the damage area (feeding damage area), and the average damage area ratio was calculated for each treatment plot.

[5] = system: Pieris rapae; assay: 4-hour feeding damage test on Arabidopsis thaliana, comparison with commercial product (Example 4); assay type: in vivo; conditions: Compound 1 at 100 mM on leaf cut, 4-hour test
Method: The recombinant Arabidopsis thaliana […]: : GCaMP3 was used as a plant material, and cut was formed on the first leaf of the plant cultivated in the same manner as those of Examples 1, 2, and 3 and treated with a compound. Compound 1 and Jasmomate were used as the compound. Compound 1 was used at 100 mM, and Jasmomate was used at a 500-fold dilution concentration (0.4 mM as prohydrojasmon concentration), which is the usual recommended treatment concentration thereof. Sorbitol was used as a negative control. The test was conducted for 15 replicates per plot (independent plants and insects). For Jasmomate, a spray treatment of the leaves was performed (spray plot, Jasmomate was sprayed twice at the concentration mentioned above with an atomizer). The test of the spray plot was conducted for 10 replicates (independent plants and insects). One hour after the compound treatment, the plant body and 2-week old larva of Pieris rapae were placed in the same container to perform a 4-hour feeding damage test. The larva was weighed before and after the test, and the weight gain rate of the pest was evaluated.

Structure (SMILES) | pest damage resistance gene (AtOPR^3) expression-inducing activity [1] | Ca2+signal induction [2] | pest damage-suppressing activity [3] | pest damage-suppressing tendency ([4]; 100 mM, compared with 100 mM sorbitol plot) | weight of the feeding-damaged plant ([3]; 2-week old Pieris rapae larva, 4-hour test 1 hour after treatment, vs sorbitol plot, FIG. 2) | weight gain rate of the pest ([3]; 2-week old Pieris rapae larva, 4-hour test 1 hour after treatment, vs sorbitol plot, FIG. 3) | pest damage-suppressing effect (feeding inhibitory effect) ([4]; 1 mM in Silwet L-77 4,000-fold dilution solution) | pest damage-suppressing activity [5] | weight gain rate of the pest ([5]; vs sorbitol plot, FIG. 4)
N[C@@H](CCC(=O)N[C@@H](CCC(=O)O)C(=O)O)C(=O)O [Compound 34] | equal to or greater than that of glutamic acid | strong Ca2+signal induction | – | – | – | – | – | – | –
N[C@@H](CCC(=O)O)C(=O)O [glutamic acid, reference compound] | – | – | no pest damage-suppressing activity was observed | greater pest damage-suppressing tendency was observed | – | – | – | – | –
CC(C)OC(=O)CC[C@H](N)C(=O)O [Compound 1] | equal to or greater than that of glutamic acid; also recorded: high pest damage resistance gene expression-inducing activity | strong Ca2+signal induction | distinct pest damage-suppressing activity was observed | – | lower in the Compound 1-treated plot than in the sorbitol-treated plot | lower in the Compound 1-treated plot than in the sorbitol-treated plot | higher than those observed for the 100 mM glutamic acid treatment plot and Jasumomate treatment plot | distinct pest damage-suppressing activity was observed | lower in the Compound 1-treated plot than in the sorbitol-treated plot
